Patent US20190194179A1, “ANTIBIOTIC COMPOUNDS” (DISCUVA LTD., priority 2016, published 2019)
Structures can show the parent of a compound that is named as a salt.

Test system: Neisseria gonorrhoeae
Assay: EC50 determination: plate-based broth growth assay (absorbance at 600 nm) of Neisseria gonorrhoeae
Assay type: cell-based
Conditions: absorbance 600 nm after 20 hours at 37° C./5% CO2, read-out: IC50 (Inhibitory concentration) against Neisseria gonorrhoeae
Protocol: Actively growing Neisseria gonorrhoeae on GC agar (based on; Spence et. al. (2008): Curr. Protoc. Microbiol. 8:4A.1.1-4A.1.26) plates are harvested and transferred to GC broth (based on; Spence et al (2008): Curr. Protoc. Microbiol. 8:4A.1.1-4A.1.26) to generate a liquid stock. This culture is allowed to establish and grow to mid-log phase (at 37° C./5% CO2), finally this culture is diluted (˜10^5 cells/ml) to generate a seed inoculum to establish plate-based broth assays. EC50 values were determined by assaying growth (absorbance read at 600 nm, after 20 hours at 37° C./5% CO2) of Neisseria gonorrhoeae across a 10-point dilution series of the test compound. The EC50 value is determined from transformed data to identify the concentration of compound giving a 50% response relative to control samples (no compound).

Structure (SMILES)	IC50 [nM]
FC(F)(F)c1ccc2nc(Nc3ncc(N4CCNCC4)s3)oc2c1 [Example 49, N-(5-(Piperazin-1-yl)thiazol-2-yl)-6-(trifluoromethyl)benzo[d]oxazol-2-amine hydrochloride]	≤ 1000
Cc1nnc(Nc2nc3cc(Cl)ccc3o2)o1 [Example 50, 5-Chloro-N-(5-methyl-1,3,4-oxadiazol-2-yl)benzo[d]oxazol-2-amine]	≤ 100
FC(F)(F)c1cc2oc(Nc3nnc(C4CC4)o3)nc2cn1 [Example 51, N-(5-Cyclopropyl-1,3,4-oxadiazol-2-yl)-6-(trifluoromethyl)oxazolo[4,5-c]pyridin-2-amine]	≤ 1000
CCOC(=O)c1nnc(Nc2nc3cc(C(F)(F)F)ccc3o2)o1 [Example 52, Ethyl 5-((5-(trifluoromethyl)benzo[d]oxazol-2-yl)amino)-1,3,4-oxadiazole-2-carboxylate]	≤ 1000
Cc1nnc(Nc2nc3cnc(C(F)(F)F)cc3o2)o1 [Example 53, N-(5-Methyl-1,3,4-oxadiazol-2-yl)-6-(trifluoromethyl)oxazolo[4,5-c]pyridin-2-amine]	≤ 10000
CCOC(=O)c1nnc(Nc2nc3cc(C(F)(F)F)ccc3n2C)o1 [Example 55, Ethyl 5-((1-methyl-5-(trifluoromethyl)-1H-benzo[d]imidazol-2-yl)amino)-1,3,4-oxadiazole-2-carboxylate]	≤ 1000
CCOC(=O)c1nnc(Nc2nc3cc(C(F)(F)F)ccc3[nH]2)o1 [Example 56, Ethyl 5-((5-(trifluoromethyl)-1H-benzo[d]imidazol-2-yl)amino)-1,3,4-oxadiazole-2-carboxylate]	≤ 1000
FC(F)(F)c1ccc2oc(Nc3nc4ccncc4o3)nc2c1 [Example 59, N-(5-(triFluoromethyl)benzo[d]oxazol-2-yl)oxazolo[5,4-c]pyridin-2-amine]	≤ 1000
CCOC(=O)c1nnc(Nc2nc3cc(C(F)(F)F)c(Cl)cc3o2)o1 [Example 65, Ethyl 5-((6-chloro-5-(trifluoromethyl)benzo[d]oxazol-2-yl)amino)-1,3,4-oxadiazole-2-carboxylate]	≤ 100
FC(F)(F)c1ccc2oc(Nc3nnc(CN4CCOCC4)o3)nc2c1 [Example 70, N-(5-(morpholinomethyl)-1,3,4-oxadiazol-2-yl)-5-(trifluoromethyl)benzo[d]oxazol-2-amine]	≤ 1000
FC(F)(F)c1ccc2oc(Nc3nnc(CN4CCCCC4)o3)nc2c1 [Example 72, N-(5-(Piperidin-1-ylmethyl)-1,3,4-oxadiazol-2-yl)-5-(trifluoromethyl)benzo[d]oxazol-2-amine]	≤ 1000
CC1CCCN1Cc1nnc(Nc2nc3cc(C(F)(F)F)ccc3o2)o1 (centres unmarked) [Example 73, N-(5-((2-Methylpyrrolidin-1-yl)methyl)-1,3,4-oxadiazol-2-yl)-5-(trifluoromethyl)benzo[d]oxazol-2-amine]	≤ 1000
FC1(F)CCN(Cc2nnc(Nc3nc4cc(C(F)(F)F)ccc4o3)o2)C1 [Example 74, N-(5-((3,3-diFluoropyrrolidin-1-yl)methyl)-1,3,4-oxadiazol-2-yl)-5-(trifluoromethyl)benzo[d]oxazol-2-amine]	≤ 1000
COC1CCN(Cc2nnc(Nc3nc4cc(C(F)(F)F)ccc4o3)o2)C1 (centres unmarked) [Example 75, N-(5-((3-Methoxypyrrolidin-1-yl)methyl)-1,3,4-oxadiazol-2-yl)-5-(trifluoromethyl)benzo[d]oxazol-2-amine]	≤ 1000
N#CC1CCN(Cc2nnc(Nc3nc4cc(C(F)(F)F)ccc4o3)o2)C1 (centres unmarked) [Example 76, 1-((5-((5-(triFluoromethyl)benzo[d]oxazol-2-yl)amino)-1,3,4-oxadiazol-2-yl)methyl)pyrrolidine-3-carbonitrile]	≤ 10000
FC1CCN(Cc2nnc(Nc3nc4cc(C(F)(F)F)ccc4o3)o2)C1 (centres unmarked) [Example 79, N-(5-((3-Fluoropyrrolidin-1-yl)methyl)-1,3,4-oxadiazol-2-yl)-5-(trifluoromethyl)benzo[d]oxazol-2-amine]	≤ 1000
Cc1nnc(Nc2nc3ccc(C(F)(F)F)cc3[nH]2)o1 [Example 83, 5-Methyl-N-(6-(trifluoromethyl)-1H-benzo[d]imidazol-2-yl)-1,3,4-oxadiazol-2-amine]	≤ 1000
COC(=O)c1ccc2[nH]c(Nc3nnc(C)o3)nc2c1 [Example 84, Methyl 2-((5-methyl-1,3,4-oxadiazol-2-yl)amino)-1H-benzo[d]imidazole-5-carboxylate]	≤ 10000
Cc1nnc(Nc2nc3cc(C(F)(F)F)ccc3[nH]2)s1 [Example 86, 5-Methyl-N-(5-(trifluoromethyl)-1H-benzo[d]imidazol-2-yl)-1,3,4-thiadiazol-2-amine]	≤ 1000
Cc1nnc(Nc2nc3cc(C(F)(F)F)ccc3n2C)o1 [Example 88, 5-Methyl-N-(1-methyl-5-(trifluoromethyl)-1H-benzo[d]imidazol-2-yl)-1,3,4-oxadiazol-2-amine]	≤ 1000
Cc1nnc(Nc2nc3ccc(C(F)(F)F)cc3n2C)o1 [Example 89, 5-Methyl-N-(1-methyl-6-(trifluoromethyl)-1H-benzo[d]imidazol-2-yl)-1,3,4-oxadiazol-2-amine]	≤ 1000
Cc1nnc(Nc2nc3c(C)cccc3n2C)o1 [Example 90, N-(1,4-Dimethyl-1H-benzo[d]imidazol-2-yl)-5-methyl-1,3,4-oxadiazol-2-amine]	≤ 10000
Clc1ccc2nc(Nc3nnco3)[nH]c2c1 [Example 91, N-(6-Chloro-1H-benzo[d]imidazol-2-yl)-1,3,4-oxadiazol-2-amine]	≤ 100000

Next, values leading:

IC50 [nM]	Structure (SMILES)
≤ 1000	Clc1ccc2nc(Nc3ccon3)oc2c1 [Example 46, 6-Chloro-N-(isoxazol-3-yl)benzo[d]oxazol-2-amine]
≤ 100	Fc1cc2nc(Nc3nnco3)oc2cc1Cl [Example 47, 6-Chloro-5-fluoro-N-(1,3,4-oxadiazol-2-yl)benzo[d]oxazol-2-amine]
≤ 100	Fc1cc2nc(Nc3nnco3)oc2cc1F [Example 48, 5,6-diFluoro-N-(1,3,4-oxadiazol-2-yl)benzo[d]oxazol-2-amine]
≤ 1000	Cc1nnc(Nc2nc3ccc(F)cc3o2)o1 [Example 54, 6-Fluoro-N-(5-methyl-1,3,4-oxadiazol-2-yl)benzo[d]oxazol-2-amine]
≤ 1000	Clc1cccc2nc(Nc3nnco3)oc12 [Example 57, 7-Chloro-N-(1,3,4-oxadiazol-2-yl)benzo[d]oxazol-2-amine]
≤ 10000	Cc1nnc(Nc2nc3cnccc3o2)o1 [Example 58, N-(5-Methyl-1,3,4-oxadiazol-2-yl)oxazolo[4,5-c]pyridin-2-amine]
≤ 100	CCOC(=O)c1nnc(Nc2nc3ccc(Cl)cc3o2)o1 [Example 61, Ethyl 5-((6-chlorobenzo[d]oxazol-2-yl)amino)-1,3,4-oxadiazole-2-carboxylate]
≤ 1000	Cc1nnc(Nc2nc3c(F)cccc3o2)o1 [Example 62, 4-Fluoro-N-(5-methyl-1,3,4-oxadiazol-2-yl)benzo[d]oxazol-2-amine]
≤ 1000	Fc1ccc2nc(Nc3nnco3)oc2c1 [Example 63, 6-Fluoro-N-(1,3,4-oxadiazol-2-yl)benzo[d]oxazol-2-amine]
≤ 10000	Cc1nnc(Nc2nc3cncc(Cl)c3o2)o1 [Example 64, 7-Chloro-N-(5-methyl-1,3,4-oxadiazol-2-yl)oxazolo[4,5-c]pyridin-2-amine]
≤ 1000	Fc1ccc2oc(Nc3nnco3)nc2c1 [Example 66, 5-Fluoro-N-(1,3,4-oxadiazol-2-yl)benzo[d]oxazol-2-amine]
≤ 1000	FC(F)(F)c1ccc2[nH]c(Nc3nnco3)nc2c1 [Example 68, N-(5-(Trifluoromethyl)-1H-benzo[d]imidazol-2-yl)-1,3,4-oxadiazol-2-amine]
≤ 1000	Cn1c(Nc2nnco2)nc2cc(C(F)(F)F)ccc21 [Example 69, N-(1-methyl-5-(trifluoromethyl)-1H-benzo[d]imidazol-2-yl)-1,3,4-oxadiazol-2-amine]
≤ 1000	FC(F)(F)c1ccc2oc(Nc3nnc(CN4CCCC4)o3)nc2c1 [Example 71, N-(5-(Pyrrolidin-1-ylmethyl)-1,3,4-oxadiazol-2-yl)-5-(trifluoromethyl)benzo[d]oxazol-2-amine]
≤ 100	Clc1ccc2nc(Nc3nnc(CN4CCCC4)o3)oc2c1 [Example 77, 6-Chloro-N-(5-(pyrrolidin-1-ylmethyl)-1,3,4-oxadiazol-2-yl)benzo[d]oxazol-2-amine]
≤ 1000	CC1CCN(Cc2nnc(Nc3nc4cc(C(F)(F)F)ccc4o3)o2)C1 (centres unmarked) [Example 78, N-(5-((3-methylpyrrolidin-1-yl)methyl)-1,3,4-oxadiazol-2-yl)-5-(trifluoromethyl)benzo[d]oxazol-2-amine]
≤ 1000	CN(C)Cc1nnc(Nc2nc3ccc(Cl)cc3o2)o1 [Example 81, 6-Chloro-N-(5-((dimethylamino)methyl)-1,3,4-oxadiazol-2-yl)benzo[d]oxazol-2-amine]
≤ 1000	CN(C)Cc1nnc(Nc2nc3cc(C(F)(F)F)ccc3o2)o1 [Example 82, N-(5-((Dimethylamino)methyl)-1,3,4-oxadiazol-2-yl)-5-(trifluoromethyl)benzo[d]oxazol-2-amine]
≤ 1000	Cc1nnc(Nc2nc3cc(Cl)ccc3[nH]2)o1 [Example 85, N-(5-Chloro-1H-benzo[d]imidazol-2-yl)-5-methyl-1,3,4-oxadiazol-2-amine]
≤ 1000	Cc1nnc(Nc2nc3c(F)cccc3[nH]2)o1 [Example 87, N-(4-Fluoro-1H-benzo[d]imidazol-2-yl)-5-methyl-1,3,4-oxadiazol-2-amine]
≤ 100000	Cn1c(Nc2nnco2)nc2ccc(Cl)cc21 [Example 92, N-(6-Chloro-1-methyl-1H-benzo[d]imidazol-2-yl)-1,3,4-oxadiazol-2-amine]
